Source: ChEMBL document CHEMBL4627352, “New acrylamide-sulfisoxazole conjugates as dihydropteroate synthase inhibitors” (Bioorg Med Chem, 2020)
≈ marks a conversion by molar mass, not a printed value. Calls of active or inactive are those of the source. The calls are words filed in the database; no cut-off is given here.

How the values were obtained:
Klebsiella pneumoniae [1] = assay: Inhibition of DHPS in Klebsiella pneumoniae assessed as antibacterial activity by measuring inhibition of bacterial growth incubated for 24 hrs by microbroth dilution method
Streptococcus pneumoniae [2] = assay: Inhibition of DHPS in Streptococcus pneumoniae assessed as antibacterial activity by measuring inhibition zone at 5 mg/mL incubated for 24 hrs by disk diffusion method
[3] = tested on: Syncephalastrum racemosum; assay: Inhibition of DHPS in Syncephalastrum racemosum assessed as antifungal activity by measuring inhibition zone at 5 mg/mL incubated for 48 hrs by disk diffusion method
Geotrichum candidum [4] = assay: Inhibition of DHPS in Geotrichum candidum assessed as antifungal activity by measuring inhibition zone at 5 mg/mL incubated for 48 hrs by disk diffusion method
Escherichia coli [5] = assay: Inhibition of DHPS in Escherichia coli assessed as antibacterial activity by measuring inhibition zone at 5 mg/mL incubated for 24 hrs by disk diffusion method
Aspergillus fumigatus [6] = assay: Inhibition of DHPS in Aspergillus fumigatus assessed as antifungal activity by measuring inhibition of fungal growth incubated for 48 hrs by microbroth dilution method
[7] = tested on: Escherichia coli ATCC 25922; assay: Inhibition of DHPS in Escherichia coli ATCC 25922 assessed as inhibition of bacterial growth incubated for 24 hrs in presence of folate precursor, pABA by microbroth dilution method
Aspergillus fumigatus [8] = assay: Potency index, ratio of sulfisoxazole MIC to compound MIC for Aspergillus fumigatus assessed as inhibition of DHPS-mediated fungal growth incubated for 48 hrs by microbroth dilution method
hTERT-BJ = assay: Cytotoxicity against human hTERT-BJ1 cells at 50 uM by acid phosphatase assay relative to control; format: cell-based
[9] = tested on: Staphylococcus epidermidis; assay: Inhibition of DHPS in Staphylococcus epidermidis assessed as antibacterial activity by measuring inhibition zone at 5 mg/mL incubated for 24 hrs by disk diffusion method
Escherichia coli [10] = assay: Inhibition of DHPS in Escherichia coli assessed as antibacterial activity by measuring inhibition of bacterial growth incubated for 24 hrs by microbroth dilution method
[11] = tested on: Syncephalastrum racemosum; assay: Inhibition of DHPS in Syncephalastrum racemosum assessed as antifungal activity by measuring inhibition of fungal growth incubated for 48 hrs by microbroth dilution method
[12] = tested on: Syncephalastrum racemosum; assay: Potency index, ratio of sulfisoxazole MIC to compound MIC for Syncephalastrum racemosum assessed as inhibition of DHPS-mediated fungal growth incubated for 48 hrs by microbroth dilution method
Aspergillus fumigatus [13] = assay: Inhibition of DHPS in Aspergillus fumigatus assessed as antifungal activity by measuring inhibition zone at 5 mg/mL incubated for 48 hrs by disk diffusion method
Bacillus subtilis [14] = assay: Inhibition of DHPS in Bacillus subtilis assessed as antibacterial activity by measuring inhibition of bacterial growth incubated for 24 hrs by microbroth dilution method
Bacillus subtilis [15] = assay: Inhibition of DHPS in Bacillus subtilis assessed as antibacterial activity by measuring inhibition zone at 5 mg/mL incubated for 24 hrs by disk diffusion method
Proteus vulgaris [16] = assay: Inhibition of DHPS in Proteus vulgaris assessed as antibacterial activity by measuring inhibition zone at 5 mg/mL incubated for 24 hrs by disk diffusion method
Streptococcus pneumoniae [17] = assay: Inhibition of DHPS in Streptococcus pneumoniae assessed as antibacterial activity by measuring inhibition of bacterial growth incubated for 24 hrs by microbroth dilution method
[18] = tested on: Staphylococcus epidermidis; assay: Inhibition of DHPS in Staphylococcus epidermidis assessed as antibacterial activity by measuring inhibition of bacterial growth incubated for 24 hrs by microbroth dilution method
Klebsiella pneumoniae [19] = assay: Inhibition of DHPS in Klebsiella pneumoniae assessed as antibacterial activity by measuring inhibition zone at 5 mg/mL incubated for 24 hrs by disk diffusion method
[20] = tested on: Escherichia coli ATCC 25922; assay: Inhibition of DHPS in Escherichia coli ATCC 25922 assessed as inhibition of bacterial growth incubated for 24 hrs in presence of folate dependent metabolite, methionine by microbroth dilution method
Geotrichum candidum [21] = assay: Inhibition of DHPS in Geotrichum candidum assessed as antifungal activity by measuring inhibition of fungal growth incubated for 48 hrs by microbroth dilution method
Geotrichum candidum [22] = assay: Potency index, ratio of sulfisoxazole MIC to compound MIC for Geotrichum candidum assessed as inhibition of DHPS-mediated fungal growth incubated for 48 hrs by microbroth dilution method
[23] = tested on: Syncephalastrum racemosum; assay: Potency index, ratio of amphotericin B MIC to compound MIC for Syncephalastrum racemosum assessed as inhibition of DHPS-mediated fungal growth incubated for 48 hrs by microbroth dilution method
Escherichia coli [24] = assay: Potency index, ratio of sulfisoxazole MIC to compound MIC for Escherichia coli assessed as inhibition of DHPS-mediated bacterial growth incubated for 24 hrs by microbroth dilution method
Proteus vulgaris [25] = assay: Inhibition of DHPS in Proteus vulgaris assessed as antibacterial activity by measuring inhibition of bacterial growth incubated for 24 hrs by microbroth dilution method
[26] = tested on: Staphylococcus epidermidis; assay: Potency index, ratio of sulfisoxazole MIC to compound MIC for Staphylococcus epidermidis assessed as inhibition of DHPS-mediated bacterial growth incubated for 24 hrs by microbroth dilution method
Klebsiella pneumoniae [27] = assay: Potency index, ratio of sulfisoxazole MIC to compound MIC for Klebsiella pneumoniae assessed as inhibition of DHPS-mediated bacterial growth incubated for 24 hrs by microbroth dilution method

Compound | MIC (Klebsiella pneumoniae [1]) | inhibition zone (IZ) (Streptococcus pneumoniae [2]) | inhibition zone (IZ) [3] | inhibition zone (IZ) (Geotrichum candidum [4]) | inhibition zone (IZ) (Escherichia coli [5]) | MIC (Aspergillus fumigatus [6]) | inhibition [7] | Ratio (Aspergillus fumigatus [8]) | inhibition zone (IZ) [9] | MIC (Escherichia coli [10]) | MIC [11] | inhibition zone (IZ) (Aspergillus fumigatus [13]) | MIC (Bacillus subtilis [14]) | inhibition zone (IZ) (Bacillus subtilis [15]) | inhibition zone (IZ) (Proteus vulgaris [16]) | MIC (Streptococcus pneumoniae [17]) | MIC [18] | inhibition zone (IZ) (Klebsiella pneumoniae [19]) | inhibition [20] | MIC (Geotrichum candidum [21]) | further results
CN/C(S[C@@H]1O[C@H](COC(C)=O)[C@H](OC(C)=O)[C@H](OC(C)=O)[C@H]1OC(C)=O)=C(/C#N)C(=O)Nc1ccc(S(=O)(=O)Nc2onc(C)c2C)cc1 | 31.2 µg/mL (≈ 42.4 µM) | 17.3 mm | 15.1 mm | 16.9 mm | 16.3 mm | 31.2 µg/mL (≈ 42.4 µM) | inactive | 1 to 3 | 15.4 mm | 15.6 µg/mL (≈ 21.2 µM) | 62.5 µg/mL (≈ 84.7 µM) | 16.3 mm | 15.6 µg/mL (≈ 21.2 µM) | 16.8 mm | 11.8 mm | 15.6 µg/mL (≈ 21.2 µM) | 62.5 µg/mL (≈ 84.7 µM) | 17.1 mm | inactive | 62.5 µg/mL (≈ 84.7 µM) | Activity (hTERT-BJ): 26%; Ratio [12]: 1 to 3
CCN/C(S[C@@H]1O[C@H](COC(C)=O)[C@H](OC(C)=O)[C@H](OC(C)=O)[C@H]1OC(C)=O)=C(/C#N)C(=O)Nc1ccc(S(=O)(=O)Nc2onc(C)c2C)cc1 | 7.81 µg/mL (≈ 10.4 µM) | 18.9 mm | 15.9 mm | 18.3 mm | 17.1 mm | 15.6 µg/mL (≈ 20.8 µM) | inactive | 1 to 3 | 16.3 mm | 7.81 µg/mL (≈ 10.4 µM) | 31.2 µg/mL (≈ 41.6 µM) | 17.2 mm | 7.8 µg/mL (≈ 10.4 µM) | 17.6 mm | 13.4 mm | 7.8 µg/mL (≈ 10.4 µM) | 31.2 µg/mL (≈ 41.6 µM) | 19.8 mm | inactive | 31.2 µg/mL (≈ 41.6 µM) | MIC (Proteus vulgaris [25]): 125 µg/mL (≈ 166 µM); Ratio [12]: 1 to 3; Ratio (Escherichia coli [24]): 3
C=CCN/C(S[C@@H]1O[C@H](COC(C)=O)[C@H](OC(C)=O)[C@H](OC(C)=O)[C@H]1OC(C)=O)=C(/C#N)C(=O)Nc1ccc(S(=O)(=O)Nc2onc(C)c2C)cc1 | 0.98 µg/mL (≈ 1.28 µM) | 19.3 mm | 17.2 mm | 20.2 mm | 18.3 mm | 7.81 µg/mL (≈ 10.2 µM) | inactive | 1 to 3 | 17.1 mm | 7.81 µg/mL (≈ 10.2 µM) | 15.6 µg/mL (≈ 20.5 µM) | 18.3 mm | 0.98 µg/mL (≈ 1.28 µM) | 20.8 mm | 15.2 mm | 3.9 µg/mL (≈ 5.11 µM) | 15.6 µg/mL (≈ 20.5 µM) | 21.2 mm | inactive | 3.9 µg/mL (≈ 5.11 µM) | MIC (Proteus vulgaris [25]): 62.5 µg/mL (≈ 81.8 µM); Activity (hTERT-BJ): 28.6%; Ratio (Geotrichum candidum [22]): 2; Ratio [12]: 1 to 3; Ratio (Escherichia coli [24]): 3; Ratio (Klebsiella pneumoniae [27]): 4

Now from value to compound, other results behind:

MIC (Klebsiella pneumoniae [1]) | inhibition zone (IZ) (Streptococcus pneumoniae [2]) | inhibition zone (IZ) [3] | inhibition zone (IZ) (Geotrichum candidum [4]) | inhibition zone (IZ) (Escherichia coli [5]) | MIC (Aspergillus fumigatus [6]) | inhibition [7] | Ratio (Aspergillus fumigatus [8]) | inhibition zone (IZ) [9] | MIC (Escherichia coli [10]) | MIC [11] | inhibition zone (IZ) (Aspergillus fumigatus [13]) | MIC (Bacillus subtilis [14]) | inhibition zone (IZ) (Bacillus subtilis [15]) | inhibition zone (IZ) (Proteus vulgaris [16]) | MIC (Streptococcus pneumoniae [17]) | MIC [18] | inhibition zone (IZ) (Klebsiella pneumoniae [19]) | inhibition [20] | MIC (Geotrichum candidum [21]) | Compound | further results
0.49 µg/mL (≈ 0.642 µM) | 26.7 mm | 24.4 mm | 23.2 mm | 23.4 mm | 0.98 µg/mL (≈ 1.28 µM) | inactive | 4 to 6 | 25.6 mm | 3.9 µg/mL (≈ 5.11 µM) | 1.95 µg/mL (≈ 2.55 µM) | 26.1 mm | 0.98 µg/mL (≈ 1.28 µM) | 28.6 mm | inactive | 1.95 µg/mL (≈ 2.55 µM) | 3.9 µg/mL (≈ 5.11 µM) | 23.2 mm | inactive | 0.49 µg/mL (≈ 0.642 µM) | C=CCN/C(S[C@@H]1O[C@H](COC(C)=O)[C@@H](OC(C)=O)[C@H](OC(C)=O)[C@H]1OC(C)=O)=C(/C#N)C(=O)Nc1ccc(S(=O)(=O)Nc2onc(C)c2C)cc1 | Activity (hTERT-BJ): 15.2%; Ratio (Geotrichum candidum [22]): 3 to 5; Ratio [23]: 2; Ratio (Escherichia coli [24]): 4
0.98 µg/mL (≈ 2.41 µM) | 20.3 mm | 17.2 mm | 18.9 mm | 20.6 mm | 3.9 µg/mL (≈ 9.57 µM) | inactive | 4 | 20.8 mm | 1.95 µg/mL (≈ 4.79 µM) | 15.6 µg/mL (≈ 38.4 µM) | 18.6 mm | 0.98 µg/mL (≈ 2.41 µM) | 22.4 mm | 18.3 mm | 3.9 µg/mL (≈ 9.57 µM) | 1.95 µg/mL (≈ 4.79 µM) | 22.6 mm | inactive | 3.9 µg/mL (≈ 9.57 µM) | CN/C(S)=C(/C#N)C(=O)Nc1ccc(S(=O)(=O)Nc2onc(C)c2C)cc1 | MIC (Proteus vulgaris [25]): 7.81 µg/mL (≈ 19.2 µM); Ratio [26]: 4; Ratio (Geotrichum candidum [22]): 2; Ratio (Klebsiella pneumoniae [27]): 3
0.98 µg/mL (≈ 1.3 µM) | 25.3 mm | 21.3 mm | 22.1 mm | 21.3 mm | 3.9 µg/mL (≈ 5.19 µM) | inactive | 4 to 6 | 24.7 mm | 7.81 µg/mL (≈ 10.4 µM) | 15.6 µg/mL (≈ 20.8 µM) | 24.2 mm | 1.95 µg/mL (≈ 2.59 µM) | 27.5 mm | 21.4 mm | 3.9 µg/mL (≈ 5.19 µM) | 3.9 µg/mL (≈ 5.19 µM) | 18.8 mm | inactive | 0.98 µg/mL (≈ 1.3 µM) | CCN/C(S[C@@H]1O[C@H](COC(C)=O)[C@@H](OC(C)=O)[C@H](OC(C)=O)[C@H]1OC(C)=O)=C(/C#N)C(=O)Nc1ccc(S(=O)(=O)Nc2onc(C)c2C)cc1 | MIC (Proteus vulgaris [25]): 7.81 µg/mL (≈ 10.4 µM); Ratio (Geotrichum candidum [22]): 3 to 5
